Test results as given in patent US9937163B2, “Remedy for psychoneurotic diseases” (National University Corporation Chiba University, priority 2004, dated 2018).
Marks after values point to notes of the source that are not given here.

Tested on: P50 auditory evoked potential in schizophrenic patients
Assay: P50 auditory evoked potential in schizophrenic patients before and 1 h after administration of tropisetron
Assay type: in vivo, human
Procedure: Twenty-two patients with schizophrenia (14 males and 8 females, average age: 39.8 years old (standard deviation 14.0), age range: 18-60 years old) were selected as subjects. The subjects were diagnosed by psychiatrists on the basis of DSM-IV criteria. Psychiatric symptoms and cognitive functions of the subjects were evaluated using Brief Psychiatric Rating Scale (BPRS), Global Assessment of Functioning (GAF), Mini-Mental State Examination (MMSE) and Wechsler Adult Intelligence Scale-Revised (WAIS-R).
First, a baseline P50 auditory evoked potential of a subject was measured (conditioning P50), then the P50 was measured 1 h after administration of 10 mg of tropisetron (test P50). P50 is a positive brain wave which appears approximately 50 m seconds after an auditory stimulus. Consecutive click sounds with an interval of 500 m seconds (conditioning stimulus and test stimulus) at 70 dB were presented every 10 seconds for 120 times, and the brain wave measured at the parietal region was summed to identify P50. The resistance of an electrode was set at 10 kW or less, and the brain wave exceeding ±70 mV was omitted as artifact. The largest positive wave between 40 ms and 90 ms after the conditioning stimulus was designated to be the conditioning P50, and the positive wave after the test stimulus whose latency is the closest to that of the conditioning P50 was designated to be the test P50. The amplitude of P50 was defined as the difference between the positive peak and the preceding negative trough. The P50 ratio was defined as the amplitude of the test P50 divided by the amplitude of the conditioning P50.
Data were expressed as average±standard deviation. The statistical analysis between two groups was performed using Student's t-test. The relationship between variables was confirmed by Pearson's product-moment correlation coefficient. p Values of 0.05 or less were designated to be statistically significant.

[1] = 1 h after administration of 10 mg tropisetron, 19 subjects with baseline P50 ratio larger than 0.5

## CN1[C@@H]2CC[C@H]1C[C@@H](OC(=O)c1c[nH]c3ccccc13)C2 [tropisetron, (1R,3r,5S)-8-methyl-8-azabicyclo[3.2.1]oct-3-yl 1H-indole-3-carboxylate]
10 mg tropisetron, 1 h, 19 subjects, t=0.79, df=18, p=0.44
  Change in amplitude of conditioning P50 between before and after administration: no significant differences
10 mg tropisetron, 1 h, 19 subjects, t=1.05, df=18, p=0.31
  Change in latency of conditioning P50 between before and after administration: no significant differences
10 mg tropisetron, 1 h, 19 subjects, t=2.32, df=18, p=0.033
  Change in P50 ratio between before and after administration: significant decrease
[1]
  Latency, conditioning P50, After, Mean: 59.79 ms
  Latency, test P50, After, Mean: 59.16 ms
1 h after administration of 10 mg tropisetron, 19 subjects with baseline P50 ratio larger than 0.5, amplitude of test P50 divided by amplitude of conditioning P50
  P50(T/C)ratio, After, Mean: 0.61*
Conclusion drawn from the decrease in P50 ratios in patients with schizophrenia
  Effect on cognitive dysfunction in schizophrenia: improves cognitive dysfunction in schizophrenia
Of 19 subjects with baseline P50 ratio larger than 0.5, after 10 mg tropisetron
  Number of subjects in whom the P50 ratio improved to 0.5 or less: four
